Cn1cc[n+](CCCC[n+]2ccn(C)c2)c1.F[P-](F)(F)(F)(F)F.F[P-](F)(F)(F)(F)F
Conditions	solubility (mole fraction)
in 2-butanone, 283.15 K	0.00838
in 2-butanone, 288.15 K	0.00936
in 2-butanone, 294.15 K	0.0114
in 2-butanone, 299.15 K	0.014
in 2-butanone, 304.15 K	0.0178
in 2-butanone, 309.15 K	0.0235
in 2-butanone, 315.15 K	0.0349
in 2-butanone, 320.15 K	0.0496
in 2-butanone, 325.15 K	0.0728
in acetophenone, 299.65 K	0.00127
in acetophenone, 303.65 K	0.00198
in acetophenone, 307.35 K	0.00285
in acetophenone, 313.15 K	0.00472
in acetophenone, 318.15 K	0.00677
in acetophenone, 323.15 K	0.00919
in acetophenone, 328.15 K	0.0117
in acetophenone, 332.15 K	0.0137
in acetylacetone, 283.15 K	0.00252
in acetylacetone, 288.15 K	0.0026
in acetylacetone, 293.15 K	0.00295
in acetylacetone, 297.45 K	0.00352
in acetylacetone, 302.65 K	0.00473
in acetylacetone, 309.15 K	0.00768
in acetylacetone, 314.15 K	0.0121
in acetylacetone, 320.15 K	0.0227
in acetylacetone, 325.15 K	0.0409
in acetylacetone, 330.15 K	0.0784
in cyclohexanone, 283.15 K	0.000563
in cyclohexanone, 288.15 K	0.0009
in cyclohexanone, 293.15 K	0.00138
in cyclohexanone, 298.35 K	0.00206
in cyclohexanone, 302.15 K	0.00271
in cyclohexanone, 308.65 K	0.0041
in cyclohexanone, 313.15 K	0.00529
in cyclohexanone, 318.25 K	0.00688
in cyclohexanone, 323.15 K	0.00857
in cyclohexanone, 328.15 K	0.0105
in cyclohexanone, 333.15 K	0.0124
in water, 283.15 K	9.5e-05
in water, 288.45 K	0.000124
in water, 293.15 K	0.000156
in water, 298.15 K	0.000203
in water, 303.65 K	0.000274
in water, 308.15 K	0.000348
in water, 313.15 K	0.000456
in water, 318.35 K	0.000608
in water, 323.15 K	0.00079
in water, 328.15 K	0.00105
in water, 333.15 K	0.00138

— BigSolDB 2.1
